Measured values published in patent US8197863B2, “Hop acids as a replacement for antibiotics in animal feed” (John I. Haas, Inc., priority 2002, dated 2012).

Tested on: total bacteria (bacterial purine)
Assay: In vitro microbe measurements: bacterial purine (total bacteria)
Type: cell-based, cattle
Conditions: alfalfa; monensin 6 ppm
Description: Proprionate is largely responsible for animal growth. […] There appears to be no effect on alfalfa protozoa and alfalfa bacterial purine by the beta acids. Again, reduction in protozoa and bacteria levels means more food and energy for animal growth.

CC[C@@]1([C@@H]2O[C@@H]([C@H]3O[C@@](O)(CO)[C@H](C)C[C@@H]3C)C[C@@H]2C)CC[C@H]([C@]2(C)CC[C@]3(C[C@H](O)[C@@H](C)[C@@H]([C@@H](C)[C@@H](OC)[C@H](C)C(=O)O)O3)O2)O1 [monensin]
elimination of protozoa and bacterial purines: most effectively eliminate
